Test results as given in patent US10729135B2, “Methods of controlling pests using terpendoles” (priority 2017, dated 2020).
Read-outs that look alike come from different tables or passages of the source.

How the values were obtained:
Experiment in all cases: whole plant or invertebrate
Format in all cases: in vivo
[1] = test system: birdcherry-oat aphid (Rhopalosiphum padi)
Method: (§1) A bioefficacy assay utilizing terpendole C was conducted on the lepidopterans: diamondback moth (Plutella xylostella) and common cutworm (Spodoptera litura): the whitefly, tobacco whitefly (Bemisia tabaci) the thrips, western flower thrips (Frankliniella occidentalis); the planthopper, brown rice planthopper (Nilaparvata lugens); the aphids, cotton aphid (Aphis gossypii), foxglove aphid (Aulacorthum solani), cabbage aphid (Brevicoryne brassicae), birdcherry-oat aphid (Rhopalosiphum padi), green peach aphid (Myzus persicae); and the mite, two-spotted spider mite (Tetranychus urticae). Specifically, terpendole C was diluted with acetone and 5% Tween® 20 and finally diluted with water to prepare spray solutions. Terpendole C was then applied to plants as a foliar spray at 500, 200, 50, 12.5, 3.1, 1, 0.8 and/or 0.2 ppm and/or as a soil treatment at 2,500, 1,000, 250, 63, 16, 4 and/or 1 ppm. Pests were then placed on the plant or in the soil. Further, mortality and appetite suppression were recorded at 6, 7 and/or 13 days after treatment (“DAT”) and are reported in Tables 2 and 3, below, respectively.

[2] = test system: diamondback moth (Plutella xylostella)
Method: as §1

[3] = test system: cabbage aphid (Brevicoryne brassicae)
Method: as §1

[4] = test system: green peach aphid (Myzus persicae)
Method: as §1

[5] = test system: two-spotted spider mite (Tetranychus urticae); conditions: Kidney Bean, All stages; for mortality at 12.5 ppm / mortality at 50 ppm / mortality at 200 ppm / mortality at 500 ppm: Tetranychus urticae, read-out: Mortality score; as to Appetite suppression score: key: 0 = no to little suppression; 1 = about 10% suppression; 2 = about 25% suppression; 3 = about 60% suppression; 4 = 70-100% suppression
Method: as §1

[6] = test system: brown rice planthopper (Nilaparvata lugens); conditions: 3rd-4th instar, 6 DAT
Method: as §1

CC(C)=C[C@H]1O[C@H]2[C@H]3O[C@@]34[C@H](CC[C@@]3(C)[C@@]4(O)CC[C@H]4Cc5c([nH]c6ccccc56)[C@@]43C)O[C@@H]2C(C)(C)O1 [Terpendole C, terpendole C] was tested, and the mortality at 0.8 ppm ([1]; Rhopalosiphum padi, 144 h, 0.8 ppm, Wheat, All stages, 6 DAT, read-out: Mortality score) was < 29%, the mortality at 3.1 ppm ([1]; Rhopalosiphum padi, 144 h, 3.1 ppm, Wheat, All stages, 6 DAT, read-out: Mortality score) was < 29% and the mortality at 12.5 ppm ([1]; Rhopalosiphum padi, 144 h, 12.5 ppm, Wheat, All stages, 6 DAT, read-out: Mortality score (converted)) was 50%. For the same compound, the mortality at 50 ppm ([1]; Rhopalosiphum padi, 144 h, 50 ppm, Wheat, All stages, 6 DAT, read-out: Mortality score (converted)) was 75%, the mortality at 200 ppm ([1]; Rhopalosiphum padi, 144 h, 200 ppm, Wheat, All stages, 6 DAT, read-out: Mortality score (converted)) was 90% and the “control of birdcherry-oat aphids (in words)” value ([1]; summary of Table 2) was “effectively controlled”. The Appetite suppression score ([2]; 12.5 ppm, Cabbage, 3rd instar, 6 DAT) was 0, the Appetite suppression score ([2]; 50 ppm, Cabbage, 3rd instar, 6 DAT) was 0 and the Appetite suppression score ([2]; 200 ppm, Cabbage, 3rd instar, 6 DAT) was 3 (3 = about 60% suppression). For the same compound, the Appetite suppression score ([2]; 500 ppm, Cabbage, 3rd instar, 6 DAT) was 4 (4 = 70-100% suppression), the mortality at 12.5 ppm ([2]; Plutella xylostella, 144 h, 12.5 ppm, Cabbage, 3rd instar, 6 DAT, read-out: Mortality score (converted)) was 50% and the mortality at 50 ppm ([2]; Plutella xylostella, 144 h, 50 ppm, Cabbage, 3rd instar, 6 DAT, read-out: Mortality score (converted)) was 50%. The mortality at 200 ppm ([2]; Plutella xylostella, 144 h, 200 ppm, Cabbage, 3rd instar, 6 DAT, read-out: Mortality score (converted)) was 90%, the mortality at 500 ppm ([2]; Plutella xylostella, 144 h, 500 ppm, Cabbage, 3rd instar, 6 DAT, read-out: Mortality score (converted)) was 100% and the “control of diamondback moth (in words)” value ([2]; either by killing the larvae or suppressing the appetite of the larvae) was “effectively controlled”. For the same compound, the mortality at 0.8 ppm ([3]; Brevicoryne brassicae, 144 h, 0.8 ppm, Cabbage, All stages, 6 DAT, read-out: Mortality score (converted)) was 75%, the mortality at 3.1 ppm ([3]; Brevicoryne brassicae, 144 h, 3.1 ppm, Cabbage, All stages, 6 DAT, read-out: Mortality score (converted)) was 75% and the mortality at 12.5 ppm ([3]; Brevicoryne brassicae, 144 h, 12.5 ppm, Cabbage, All stages, 6 DAT, read-out: Mortality score (converted)) was 100%. The mortality at 50 ppm ([3]; Brevicoryne brassicae, 144 h, 50 ppm, Cabbage, All stages, 6 DAT, read-out: Mortality score (converted)) was 100%, the mortality at 200 ppm ([3]; Brevicoryne brassicae, 144 h, 200 ppm, Cabbage, All stages, 6 DAT, read-out: Mortality score (converted)) was 100% and the “control of cabbage aphids (in words)” value ([3]; summary of Table 2) was “effectively controlled”. The mortality at 0.8 ppm ([4]; Myzus persicae, 144 h, 0.8 ppm, Cabbage, All stages, 6 DAT, read-out: Mortality score) was < 29%, the mortality at 3.1 ppm ([4]; Myzus persicae, 144 h, 3.1 ppm, Cabbage, All stages, 6 DAT, read-out: Mortality score (converted)) was 50% and the mortality at 12.5 ppm ([4]; Myzus persicae, 144 h, 12.5 ppm, Cabbage, All stages, 6 DAT, read-out: Mortality score (converted)) was 75%. For the same compound, the mortality at 50 ppm ([4]; Myzus persicae, 144 h, 50 ppm, Cabbage, All stages, 6 DAT, read-out: Mortality score (converted)) was 90%, the mortality at 200 ppm ([4]; Myzus persicae, 144 h, 200 ppm, Cabbage, All stages, 6 DAT, read-out: Mortality score (converted)) was 100% and the “control of green peach aphids (in words)” value ([4]; summary of Table 2) was “effectively controlled”. The Appetite suppression score ([5]; 12.5 ppm, 7 DAT) was 0, the Appetite suppression score ([5]; 12.5 ppm, 13 DAT) was 0 and the Appetite suppression score ([5]; 50 ppm, 7 DAT) was 0. The Appetite suppression score ([5]; 50 ppm, 13 DAT) was 0, the Appetite suppression score ([5]; 200 ppm, 7 DAT) was 0 and the Appetite suppression score ([5]; 200 ppm, 13 DAT) was 0. The Appetite suppression score ([5]; 500 ppm, 7 DAT) was 0, the Appetite suppression score ([5]; 500 ppm, 13 DAT) was 0 and the mortality at 12.5 ppm ([5]; 168 h, 12.5 ppm, 7 DAT) was < 29%. The mortality at 50 ppm ([5]; 168 h, 50 ppm, 7 DAT) was < 29%, the mortality at 200 ppm ([5]; 168 h, 200 ppm, 7 DAT) was < 29% and the mortality at 500 ppm ([5]; 168 h, 500 ppm, 7 DAT) was < 29%. The mortality at 12.5 ppm ([5]; 312 h, 12.5 ppm, 13 DAT) was < 29%, the mortality at 50 ppm ([5]; 312 h, 50 ppm, 13 DAT) was < 29% and the mortality at 200 ppm ([5]; 312 h, 200 ppm, 13 DAT) was < 29%. For the same compound, the mortality at 500 ppm ([5]; 312 h, 500 ppm, 13 DAT) was < 29%, the Mortality score ([6]; 12.5 ppm) was 0-1 and the mortality at 0.2 ppm ([6]; Nilaparvata lugens, 144 h, 0.2 ppm, read-out: Mortality score) was < 29%. The mortality at 0.8 ppm ([6]; Nilaparvata lugens, 144 h, 0.8 ppm, read-out: Mortality score) was < 29%, the mortality at 3.1 ppm ([6]; Nilaparvata lugens, 144 h, 3.1 ppm, read-out: Mortality score) was < 29% and the mortality at 50 ppm ([6]; Nilaparvata lugens, 144 h, 50 ppm, read-out: Mortality score) was < 29%. The mortality at 200 ppm ([6]; Nilaparvata lugens, 144 h, 200 ppm, read-out: Mortality score) was < 29%.
